Here are results for eleven compounds from PubChem BioAssay (NCI).

What all share (assay): NCI tumour cell line growth inhibition, 48 h
The subject of assay [1] is OVCAR-3 ovarian.
Assay [2] deals with A498 renal.
In assay [3] the test system is COLO 205 colon.
The subject of assay [4] is SF-539 CNS.
The subject of assay [5] is U251 CNS.
The test system of assay [6] is UACC-62 melanoma.
Assay [7] concerns NCI-H23 lung.
The test system of assay [8] is SNB-19 CNS.
Assay [9] deals with K-562 leukemia.
Assay [10] concerns HL-60(TB) leukemia.

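Five concentrations, 48 hours, 96-well plates. GI50 is the concentration that inhibits growth by half. TGI denotes the concentration required for complete inhibition of growth.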

As to `CCCNc1nc2ccccc2c2c1S(=O)(=O)c1ccc(Cl)cc1C2=O`, the GI50 was 0.944 µM in [1]; 1.51 µM in assay [2]; 2.1 µM in assay [3]; 1.26 µM in [4]; 1.6 µM in [5]; 1.28 µM in assay [6]. Also, the GI50 in assay [7] is 1.66 µM; in [8] it was 1.4 µM; in assay [9], 0.45 µM; in assay [10], 1.49 µM. The TGI is 3.1 µM in [1]; 16.8 µM in assay [2]; above 50 µM in [3]; 3.63 µM in [4]; above 50 µM in [5]; above 50 µM in [6]. Moreover, the TGI in [7], in assay [8], in assay [9] and in assay [10] was above 50 µM each time.

For the compound `CSc1cccc(NC(=O)OC2CCCCCCCCCCC2)c1`, the TGI is 29.6 µM in assay [1]; 62.3 µM in assay [2]; 28.3 µM in assay [3]; 63.7 µM in [4]; 41 µM in [5]; 52.7 µM in [6]. The TGI in [7] was 98 µM; in assay [8], above 100 µM; in assay [9], 93.7 µM; in assay [10], 35.1 µM.

Regarding `CCCCCCC(/C=N/O)C(C)(O)CCC` (centres undefined), the TGI in assay [1], in assay [2], in assay [3], in [4], in assay [5] and in assay [6] was above 100 µM each time. Further, the TGI in assay [7], in [8], in assay [9] and in [10] was above 100 µM each time.

Take `O=C(O)C1=C(C(=O)Nc2ccc(NC(=O)C3=C(C(=O)O)C4C=CC3C4)cc2)C2C=CC1C2`: the TGI in [1], in assay [2], in assay [3], in assay [4], in assay [5] and in [6] was above 100 µM throughout. The TGI in assay [7], in assay [8], in [9] and in [10] was above 100 µM throughout.

`CCOC(=O)C1=C(Nc2ccc(Cl)c(Cl)c2)OC/C1=N\NS(=O)(=O)c1ccc(C)cc1`: the TGI in [1], in assay [2], in assay [3], in [4], in assay [5] and in assay [6] was above 100 µM in each case. For the same compound, the TGI in assay [7], in [8], in assay [9] and in assay [10] was above 100 µM in each case.

For `Cc1cccc2c(N)c3ccccc3nc12`, the GI50 in [1] is 2.13 µM; in assay [2], 0.604 µM; in [3], 0.463 µM; in assay [4] it was 1.09 µM; in assay [5], 2.19 µM; in assay [6], 1.56 µM. For the same compound, the GI50 in [7] is 1.81 µM; in assay [8], 2.06 µM; in assay [9], 1.3 µM; in assay [10], 2.41 µM. Further, the TGI in assay [1] worked out at 10 µM; in assay [2], 2.28 µM; in assay [3], 2.31 µM; in assay [4] it was 4.28 µM; in assay [5] it was 7.84 µM; in [6], 4.6 µM. The TGI worked out at 7.49 µM in [7], 16.7 µM in assay [8], 13.5 µM in [9] and 10.3 µM in assay [10].

For the compound `O=C1NCCS(=O)(=O)/C1=C\C=C\c1cccc(C(F)(F)F)c1`, the GI50 in assay [1] is 2.85 µM; in assay [2] it was 2.51 µM; in [3] it was 2.31 µM; in [4], 2.83 µM; in [5], 1.67 µM; in assay [6], 1.46 µM. For the same compound, the GI50 in [7] is 1.94 µM; in assay [8] it was 2.62 µM; in assay [9], 2.48 µM; in assay [10], 2.4 µM. The TGI was found to be 11.4 µM in assay [1]; 5.31 µM in assay [2]; 5.2 µM in assay [3]; 10.1 µM in assay [4]; 3.86 µM in assay [5]; 3.89 µM in assay [6]. Moreover, the TGI worked out at 8.02 µM in [7], 10.7 µM in [8], 25.7 µM in [9] and 7.26 µM in [10].

As for `O=[N+]([O-])c1ccc(Cl)cc1C1SCc2nc3ccccc3n21` (centres undefined), the TGI is above 100 µM in assay [1]; 54 µM in [2]; above 100 µM in assay [3]; above 100 µM in [4]; above 100 µM in [5]; above 100 µM in assay [6]. The TGI in assay [7], in [8], in assay [9] and in assay [10] was above 100 µM in each case.

With `N#Cc1cc(S(=O)(=O)Nc2nc3ccccc3s2)c(SCc2ccccc2)cc1Cl`, the GI50 in assay [1] was 22.3 µM; in assay [2], 20.3 µM; in assay [3], 26.5 µM; in [4] it was 17.4 µM; in assay [5] it was 19.2 µM; in [6], 11.8 µM. Besides, the GI50 was 22.4 µM in assay [7], 20.1 µM in assay [8], 38.5 µM in assay [9] and 51.5 µM in [10]. Besides, the TGI in [1] came to 59.5 µM; in [2], 45.8 µM; in [3], 88.6 µM; in assay [4], 34.8 µM; in assay [5] it was 38.2 µM; in assay [6] it was 29.5 µM. Further, the TGI in assay [7] was 57.7 µM; in assay [8] it was 47.7 µM; in assay [9] it was above 100 µM; in [10], above 100 µM.

Take `Cc1ccccc1-n1c(C)nc(-c2ccccc2)cc1=O`: the TGI in assay [1], in assay [2], in assay [3], in assay [4], in assay [5] and in [6] was above 100 µM in each case. The TGI in assay [7], in assay [8], in assay [9] and in assay [10] was above 100 µM throughout.

Turning to `CN(C)C(=S)/N=c1\ss/c(=N\S(=O)(=O)c2ccccc2)n1N(C)C`, the TGI in [1], in [2], in assay [3], in assay [4], in [5] and in assay [6] was above 100 µM each time. Besides, the TGI in assay [8], in assay [9] and in [10] was above 100 µM each time.
